Values quoted from earlier work as cited in patent publication US20230339856A1, “NOVEL PHARMACOLOGICAL CHAPERONE COMPOUNDS OF HUMAN ACID ALPHA-GLUCOSIDASE AND THE THERAPEUTIC USE THEREOF” (UNIVERSITÉ GRENOBLE ALPES, priority 2020, published 2023).

How the values were obtained:
rhGAA = rhGAA (Homo sapiens (Human), UniProt P10253); conditions: literature value, cited from earlier work; for rhGAA ΔTm: pH 4.3, measured at [compound]=10 times the value of Ki
[1] = target: α-glucosidase II of the endoplasmic reticulum (GANAB) (Homo sapiens (Human), UniProt Q14697); conditions: literature value; cited from earlier work
Chain of α-glucosidase II of the endoplasmic reticulum (GANAB) (Q14697 29-944): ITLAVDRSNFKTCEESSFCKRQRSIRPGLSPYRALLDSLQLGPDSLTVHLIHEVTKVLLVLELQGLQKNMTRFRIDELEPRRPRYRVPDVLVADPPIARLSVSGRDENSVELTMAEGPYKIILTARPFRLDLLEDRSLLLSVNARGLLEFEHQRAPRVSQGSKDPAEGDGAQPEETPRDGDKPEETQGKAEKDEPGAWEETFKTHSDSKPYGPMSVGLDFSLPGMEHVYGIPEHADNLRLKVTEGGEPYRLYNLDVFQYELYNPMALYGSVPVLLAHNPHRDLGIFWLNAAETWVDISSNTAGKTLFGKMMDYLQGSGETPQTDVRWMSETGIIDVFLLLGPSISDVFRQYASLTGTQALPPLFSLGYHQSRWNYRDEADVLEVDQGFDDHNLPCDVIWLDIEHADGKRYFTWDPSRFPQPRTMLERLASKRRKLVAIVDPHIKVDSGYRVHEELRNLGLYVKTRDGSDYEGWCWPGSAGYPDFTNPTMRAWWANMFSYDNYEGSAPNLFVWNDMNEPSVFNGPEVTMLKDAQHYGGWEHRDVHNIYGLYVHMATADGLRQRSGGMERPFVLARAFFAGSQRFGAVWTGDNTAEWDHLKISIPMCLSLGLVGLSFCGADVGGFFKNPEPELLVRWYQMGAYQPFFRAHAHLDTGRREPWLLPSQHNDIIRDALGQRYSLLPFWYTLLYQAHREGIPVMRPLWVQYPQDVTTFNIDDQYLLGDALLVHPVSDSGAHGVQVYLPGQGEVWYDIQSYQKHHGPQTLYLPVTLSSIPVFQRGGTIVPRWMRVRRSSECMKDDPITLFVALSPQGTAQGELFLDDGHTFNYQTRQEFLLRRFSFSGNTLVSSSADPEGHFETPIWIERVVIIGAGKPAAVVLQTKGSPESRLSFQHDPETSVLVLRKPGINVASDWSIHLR
Chain of α-glucosidase II of the endoplasmic reticulum (GANAB) (P14314 15-528 partner): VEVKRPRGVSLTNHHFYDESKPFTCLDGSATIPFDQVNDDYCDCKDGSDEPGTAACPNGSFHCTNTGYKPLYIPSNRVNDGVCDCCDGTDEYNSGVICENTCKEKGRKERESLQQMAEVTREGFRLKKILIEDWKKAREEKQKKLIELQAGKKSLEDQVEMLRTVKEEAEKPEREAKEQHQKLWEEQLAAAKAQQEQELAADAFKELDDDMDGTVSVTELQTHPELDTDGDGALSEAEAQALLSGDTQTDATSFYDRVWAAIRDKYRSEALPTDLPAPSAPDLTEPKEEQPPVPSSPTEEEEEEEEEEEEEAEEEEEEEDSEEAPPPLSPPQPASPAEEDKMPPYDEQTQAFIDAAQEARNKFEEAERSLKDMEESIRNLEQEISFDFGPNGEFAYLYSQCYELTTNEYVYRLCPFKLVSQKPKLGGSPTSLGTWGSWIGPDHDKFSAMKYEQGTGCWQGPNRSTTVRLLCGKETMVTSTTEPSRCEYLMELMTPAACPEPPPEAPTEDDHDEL

SMILES | rhGAA ΔTm (rhGAA) | rhGAA ΔTm at pH 7.4 (rhGAA) | IC50 [1] [µM]
OC[C@H]1NC[C@H](O)[C@@H](O)[C@@H]1O [DNJ, deoxynojirimycin] | 2.7 (pH 4.3)*^b ° C. | 15^c^ ° C. | 
CCCCN1C[C@H](O)[C@@H](O)[C@H](O)[C@H]1CO [NB-DNJ] | 6.2 (pH 4.3)*^b ° C. | 12^d^ ° C. | 15
